Experiment [1] deals with Microtubule-associated protein tau (Homo sapiens) (UniProt P10636). As to the kind of experiment: Inhibition of human tau (441 residues) expressed in Escherichia coli BL21(DE3) assessed as reduction in aggregation at 10 uM relative to control.
Experiment [2] can be described thus: Inhibition of human tau (441 residues) P301L mutant expressed in Escherichia coli BL21(DE3) assessed as reduction in aggregation.
A further experiment is filed under the species Homo sapiens. As to the kind of experiment: Inhibition of human tau (441 residues) P301L mutant expressed in Escherichia coli BL21(DE3) assessed as reduction in aggregation at 10 uM relative to control.
Experiment [3] is described as follows: Inhibition of beta secretase (unknown origin). Details: species or system Homo sapiens.

Each structure is given as a SMILES string.

Microtubule-associated protein tau (Homo sapiens), sequence (P10636 whole entry): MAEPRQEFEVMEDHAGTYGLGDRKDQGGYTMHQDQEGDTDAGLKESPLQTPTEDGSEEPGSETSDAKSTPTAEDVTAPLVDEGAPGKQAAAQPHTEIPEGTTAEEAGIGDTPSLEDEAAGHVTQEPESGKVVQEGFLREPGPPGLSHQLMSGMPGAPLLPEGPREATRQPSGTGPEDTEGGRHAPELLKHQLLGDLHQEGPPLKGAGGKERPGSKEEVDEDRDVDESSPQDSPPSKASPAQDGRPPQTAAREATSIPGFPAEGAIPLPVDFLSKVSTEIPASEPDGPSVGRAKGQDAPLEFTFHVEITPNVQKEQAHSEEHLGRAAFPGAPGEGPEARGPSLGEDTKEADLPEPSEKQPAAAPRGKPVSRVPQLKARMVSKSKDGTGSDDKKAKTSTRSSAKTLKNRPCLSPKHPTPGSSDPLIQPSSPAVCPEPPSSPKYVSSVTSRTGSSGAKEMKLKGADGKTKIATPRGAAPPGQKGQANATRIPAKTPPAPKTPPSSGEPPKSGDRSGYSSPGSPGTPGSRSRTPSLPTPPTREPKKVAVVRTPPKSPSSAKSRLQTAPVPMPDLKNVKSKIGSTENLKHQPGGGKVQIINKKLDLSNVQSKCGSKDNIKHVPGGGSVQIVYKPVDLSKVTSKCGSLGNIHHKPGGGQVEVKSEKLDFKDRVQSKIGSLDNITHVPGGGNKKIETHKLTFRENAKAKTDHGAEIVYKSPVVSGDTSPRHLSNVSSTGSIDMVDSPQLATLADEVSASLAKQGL

What is called inhibition is the share of the control response that was lost under treatment. For orientation: IC50 means the point on the concentration scale where inhibition reaches its midpoint. With `C/C=C1/[C@H](O)OC=C(C(=O)OC)[C@H]1CC(=O)OCCc1ccc(O)c(O)c1`, the inhibition came to 79% in experiment [1] and 84% in the experiment listed under Homo sapiens. In addition, in experiment [2], the IC50 came out at 1.3 µM.
In general, Ki refers to a dissociation constant, usually derived from enzyme kinetics or from competition with a known ligand. Higher therefore signals a looser hold on the target. Turning to `COC(=O)C1=CO[C@@H](O[C@@H]2O[C@H](CO)[C@@H](O)[C@H](O)[C@H]2O)[C@@H]2[C@@H](C)[C@@H](O)C[C@H]12` [LOGANIN], the affinity in experiment [3], expressed as Ki, was 55 µM.

The values above are taken from ChEMBL document CHEMBL4342408, “Therapeutic potentials of plant iridoids in Alzheimer's and Parkinson's diseases: A review” (Eur J Med Chem, 2019).
